From patent US5236918A, “6-aryl-3-cyanaminopyridazines, their preparation and use and medicaments containing them” (BYK Gulden Lomberg Chemische Fabrik GmbH, priority 1989, dated 1993)

Key:
[1] = system: trachea (tracheal ring chain of the guinea-pig); experiment: trachea-relaxing action: relaxation of contractions generated by histamine, carbachol, prostaglandin, ovalbumin and leukotriene; type: cell-based; conditions: Cavia porcellus; read-out: trachea-relaxing action, contraction by OA (converted)
Protocol: (§1) The bronchospasmolytic action of the compounds on the tracheal ring chain of the guinea-pig was tested in vitro as follows: Four parallel tracheal ring chains, each consisting of 6 individual rings, of the guinea-pig (female and male, 430-600 g), in an organ bath [5 ml, Krebs-Henseleit solution with addition of phentolamine (10^-5 mol/l), 37° C., pretension of the organs 2 g, gassing with carbogen] develop a stable, tonic spontaneous contraction after about 20 to 30 minutes. Relaxation can be brought about on these permanently contracted organs under isometric measurement conditions by application of the test substance in a cumulatively semi-logarithmically increasing concentration (e.g. 1×10^-6 +2×10^-6 +7×10^-6 +2×10^-5etc. mol/l), a constant relaxation response being awaited after each individual dose of the test substance before the next higher concentration is applied. A complete dose/effect curve of the test substance is thus obtained over a period of 20 to 30 minutes. The particular relaxation is expressed as the percentage fraction of the maximum relaxation which can be achieved by addition of (-)isoprenaline (10^-6 mol/l). The concentration of the test substance which causes 50% of the maximum relaxation which can be achieved serves as a measure of the bronchodilatory activity, expressed by the negative logarithm of the EC50 mol/l: -log[EC50 ].
The trachea-relaxing action of compounds 3 and 4 was additionally tested by relaxation of the contractions generated by histamine (His), carbachol (CC), prostaglandin (PGF2alpha), ovalbumin (OA) and leukotriene (LTC4).

PDE IV [2] = experiment: inhibition of PDE IV from the canine trachea; type: biochemical; conditions: for [IC50]theophylline / [IC50]substance: PDE IV canine trachea, quotient of IC50 values, theophylline = 1; for -log[IC50] PDE IV canine trachea: cAMP 0.5 μmol/l, 37° C., 20 minutes
Excerpt: (§2) The inhibition of phosphodiesterases of classes III (PDE III=high-affinity cAMP-PDE which can be inhibited by cGMP) and IV (PDE IV=high-affinity cAMP-PDE which cannot be inhibited by cGMP, Rolipram-sensitive) is regarded as being particularly conclusive for a bronchospasmolytic and/or antiinflammatory action which may be expected [H. Hidaka et al., Adv. Cycl. Nucl. Res. 13, 145 (1984); Tips 5, 237 (1984); R. Weishaar et al., J. Med. Chem. 28, 537 (1985); S. A. Harrison et al., Molec. Pharmac. 29, 506 (1986); J. Klein-Tebbe et al., Allergologie 12, 12 (1989); C. Schudt et al., Allergologie 12, 12 (1989)].
(§3) The PDE inhibition of the compounds according to the invention was therefore determined on a PDE III isolated from human platelets and PDE IV isolated from human neutrophilic polymorphonuclear cells (PMNs) and from the canine trachea. The phosphodiesterases III and IV are isolated by chromatography by the method of Polson et al., Biochem. Pharmacol. 31, 3403-3406 (1982).
(§4) The substances are dissolved in DMSO and diluted further. From a series of solutions diluted up to a hundred-fold, 2.1 μl portions are taken and 212 μl reaction mixture are added. The reaction mixture contains Hepes (100 mmol/l), DTE (5 mmol/l), MgCl2 (5 mmol/l), CaCl2 (10 μmol/l), BSA fraction V 0.5 mg/ml, cAMP 0.5 μmol/l, 2,8-^3 H-cAMP 250,000 cpm/ml (0.3 μCi/ml, s.a. 33.5 μCi/mmol) and SV (snake venom) (25 μg/212 μl test batch).
(§5) The reaction is started by addition of 10 μl PDE to the reaction mixture and to the substance batch. The mixtures are then incubated at 37° C. for 20 minutes. The reaction is stopped by heating at 95° C. for 45 seconds. After the samples have cooled, the SV solution is added, the 5-AMP formed being cleaved. After incubation for 30 minutes at 37° C., this reaction is stopped by addition of 1 ml anion exchanger suspension. The cAMP which remains is thereby bonded. The adenosine formed remains in the supernatant after centrifugation and can be measured in an aliquot by the radioactivity contained therein.

[3] = system: tracheal ring chain of the guinea-pig; experiment: bronchospasmolytic action on the tracheal ring chain of the guinea-pig in vitro (relaxation of stable tonic spontaneous contraction); type: cell-based; conditions: for EC50: Cavia porcellus, EC50 in mol/l, 50% of the maximum relaxation achievable with (-)isoprenaline 10^-6 mol/l, spontaneous contraction, 37° C.; for [EC50]theophylline / [EC50]substance: quotient of EC50 values, theophylline = 1
Protocol: as §1, with “mol/l).” for “mol/l). The concentration of the test substance which causes 50% of the maximum relaxation which can be achieved serves as a measure of the bronchodilatory activity, expressed by the negative logarithm of the EC50 mol/l: -log[EC50 ].”

[4] = system: acetylcholine-induced bronchospasm; experiment: protective action against acetylcholine-induced bronchospasm on the conscious guinea-pig; type: in vivo; conditions: Cavia porcellus, 0.5 h; verum, oral, 100 μmol/kg, 30 minutes after administration; protected = latency period at least three times; read-out: Number of animals protected/number of animals used (converted)
Protocol: The bronchospasmolytic action was additionally tested on the model of "Protective action against acetylcholine-induced bronchospasm on the conscious guinea-pig":
Guinea-pigs (250-350 g) are exposed in a closed Plexiglas cylinder (volume 5 l) to an acetylcholine mist (0.06% in 0.9% sodium chloride solution; ultrasonic mister Heyer Use 77) twice before administration of the substance at an interval of 20 minutes, and 30 minutes after administration of the substance. The time from the start of misting to the onset of clear respiratory exertion (under certain circumstances hypoxic convulsions in the lateral position) is measured and defined as the latency period. A prolonging of the latency period after administration of the substance to at least three times the average latency period before administration of the substance is regarded as a protective action, and the number of protected animals in the group is stated. The test substances are administered orally by means of a stomach tube (dose 100 μmol/kg, volume 1 ml/kg, suspending agent 4% Methocel suspension in 0.9% sodium chloride solution).
The test substance is administered perorally by means of a stomach tube (standard dose 100 μmol, volume 1 ml 4% Methocel suspension in 0.9% sodium chloride solution/kg). After 30 minutes, the animals are exposed to the acetylcholine mist again and the latency periods are measured. Prolonging of the latency period to at least three times the length is regarded as a protective action.

[5] = system: histamine-induced bronchospasm; experiment: histamine-induced bronchospasm on the anaesthetized guinea-pig; type: in vivo
Protocol: The bronchospasmolytic action was furthermore determined on the model of "histamine-induced bronchospasm on the anaesthetized guinea-pig":
In this model, pharmacodynamic and toxic effects on internal sensitive receptors, on the respiration and on the cardiovascular system of guinea-pigs are recorded simultaneously [U. Kilian, E. Muller, E. Ch.
A histamine spasm before administration of the substance was compared with several histamine spasms after administration of the substance. The test substances were administered intravenously (i.v.) and/or intrajejunally (i.j.).

PDE III = molecular target: T1, PDE III (Homo sapiens, UniProt Q14432); experiment: inhibition of PDE III isolated from human platelets; type: biochemical; conditions: for [IC50]theophylline / [IC50]substance: PDE III, quotient of IC50 values, theophylline = 1; for IC50: human platelets, cAMP 0.5 μmol/l, 37° C., 20 minutes, read-out: -log[IC50] PDE III (converted)
T1 construct: PDE III isolated from human platelets; from tissue; host or cells: human platelets
T1 sequence (Q14432 whole entry): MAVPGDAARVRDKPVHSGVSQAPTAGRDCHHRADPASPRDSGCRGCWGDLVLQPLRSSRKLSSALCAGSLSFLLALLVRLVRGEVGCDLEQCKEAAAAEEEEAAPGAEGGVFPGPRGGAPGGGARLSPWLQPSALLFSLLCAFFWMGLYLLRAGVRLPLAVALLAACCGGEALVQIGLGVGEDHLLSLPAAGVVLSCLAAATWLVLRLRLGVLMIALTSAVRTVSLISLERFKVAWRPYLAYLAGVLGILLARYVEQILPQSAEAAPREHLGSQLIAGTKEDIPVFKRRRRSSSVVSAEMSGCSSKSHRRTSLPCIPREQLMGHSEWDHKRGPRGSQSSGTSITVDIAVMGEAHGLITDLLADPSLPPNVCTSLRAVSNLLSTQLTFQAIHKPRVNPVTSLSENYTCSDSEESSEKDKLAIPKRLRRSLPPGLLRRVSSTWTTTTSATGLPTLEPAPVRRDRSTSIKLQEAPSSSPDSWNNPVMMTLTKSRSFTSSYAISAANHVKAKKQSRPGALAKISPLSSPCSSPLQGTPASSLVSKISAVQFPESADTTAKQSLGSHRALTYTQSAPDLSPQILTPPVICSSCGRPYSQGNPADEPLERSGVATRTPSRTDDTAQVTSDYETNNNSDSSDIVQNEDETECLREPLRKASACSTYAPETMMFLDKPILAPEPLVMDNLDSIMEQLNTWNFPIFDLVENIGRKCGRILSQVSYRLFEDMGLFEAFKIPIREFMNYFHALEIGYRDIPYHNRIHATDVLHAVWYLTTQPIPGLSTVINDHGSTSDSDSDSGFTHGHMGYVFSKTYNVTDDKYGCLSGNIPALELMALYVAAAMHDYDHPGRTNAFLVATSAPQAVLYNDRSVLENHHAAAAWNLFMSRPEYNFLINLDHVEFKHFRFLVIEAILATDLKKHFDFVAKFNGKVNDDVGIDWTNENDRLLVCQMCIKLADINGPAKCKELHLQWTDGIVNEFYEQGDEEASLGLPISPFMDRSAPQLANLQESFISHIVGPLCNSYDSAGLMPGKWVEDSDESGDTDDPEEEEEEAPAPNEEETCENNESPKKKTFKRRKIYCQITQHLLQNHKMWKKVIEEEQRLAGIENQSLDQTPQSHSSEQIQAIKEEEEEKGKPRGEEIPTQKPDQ
Excerpt: as §2, §3, §4, §5

PDE IV [6] = experiment: inhibition of PDE IV from human neutrophilic polymorphonuclear cells (PMNs); type: biochemical; conditions: for [IC50]theophylline / [IC50]substance: PDE IV human PMNs, quotient of IC50 values, theophylline = 1; for -log[IC50] PDE IV PNMs: human neutrophilic polymorphonuclear cells, cAMP 0.5 μmol/l, 37° C., 20 minutes
Excerpt: as §2, §3, §4, §5

[7] = i.j. (intrajejunal), 20 μmol/kg
[8] = i.j. (intrajejunal), 60 μmol/kg

Structure (SMILES)	EC50 [1] [nM]	[IC50]theophylline / [IC50]substance (PDE IV [2])	-log[IC50] PDE IV canine trachea (PDE IV [2])	EC50 [3] [nM]	[EC50]theophylline / [EC50]substance [3]	responders at 100 µmol/kg [4] [%]	Average percentage bronchospasmolytic action 0-1 h p. appl., % inhibition of the histamine-induced decrease in Vmaxe [5, 7] [%]	Average percentage bronchospasmolytic action 0-1 h p. appl., % inhibition of the histamine-induced decrease in Vmaxe [5, 8] [%]	Average percentage bronchospasmolytic action 0-1 h p. appl., % inhibition of the histamine-induced decrease in Vmaxe ([5]; i.v., 20 μmol/kg) [%]	Average percentage bronchospasmolytic action 0-1 h p. appl., % inhibition of the histamine-induced decrease in Vmaxe ([5]; i.v., 60 μmol/kg) [%]	[IC50]theophylline / [IC50]substance (PDE III)	IC50 (PDE III) [µM]	[IC50]theophylline / [IC50]substance (PDE IV [6])	-log[IC50] PDE IV PNMs (PDE IV [6])	Average percentage bronchospasmolytic action 0-1 h p. appl., % inhibition of the histamine-induced decrease in Vmaxe ([5]; i.j. (intrajejunal), 100 μmol/kg) [%]	Average percentage bronchospasmolytic action 0-1 h p. appl., % inhibition of the histamine-induced decrease in Vmaxe ([5]; i.v., 100 μmol/kg) [%]
COc1ccc(-c2ccc(NC#N)nn2)cc1OC(C)C [Compound 3, 3-Cyanamino-6-[4-methoxy-3-(1-methylethoxy)phenyl]pyridazine]	646	82.2	5.75	417	324	70	29	65	28	65	30.8	5.25	117	5.82		
COc1ccc(-c2ccc(NC#N)nn2)cc1OCC(C)C [Compound 4, 3-Cyanamino-6-[4-methoxy-3-(2-methylpropoxy)phenyl]pyridazine]	398	355	6.36	112	1203	85	39	60	37	87	26.9	6.03	357	6.33		
CCOc1cc(-c2ccc(NC#N)nn2)ccc1OC(F)F [Compound 12, 3-Cyanamino-6-(4-difluoromethoxy-3-ethoxyphenyl)pyridazine]		97.8	5.80	2450	55.0	70			50							
CCOc1ccc(-c2ccc(NC#N)nn2)cc1OCC(C)C [Compound 13, 3-Cyanamino-6-[4-ethoxy-3-(2-methylpropoxy)phenyl]pyridazine]				537	251	65			28				263	6.18		
N#CNc1ccc(-c2ccc(OC(F)F)c(OCC(F)(F)F)c2)nn1 [Compound 20, 3-Cyanamino-6-[4-difluoromethoxy-3-(2,2,2-trifluoroethoxy)phenyl] pyridazine]				2290	58.9	55							148	5.93		
Cn1c(=O)c2[nH]cnc2n(C)c1=O [Theophylline, theophylline, reference compound]	288000		3.81			30	11	37	13	25				3.76	45	34
